Experimental data taken from patent publication US20040039060A1, “Inhibitor for enzyme having two divalent metal ions as active centers” (priority 2000, published 2004).
Read-outs that look alike come from different tables or passages of the source.

How the values were obtained:
[1] = UV spectrum measurement with stepwise addition of Mg2+ solution (chelate formation); assay type: physicochemical; conditions: compound 0.05 mmol/l, Mg2+ 0 to 3.6 mol/l, 240 nm to 500 nm, cell length 1 cm
Method: Compounds C-1, D-2, D-5 and D-6 were employed to determine UV spectra with treating dropwise with metal solutions.
The UV spectrum measurement was conducted with the cell length of 1 cm at a wavelength of 240 nm to 500 nm. Each test solution was obtained by preparing Solutions A^1, A2, B and C as shown below, adding an indicated volume of Solution A^1 or A2 to 1 ml of Solution B, making the total, volume 10 ml with Solution C. The concentrations of Compounds C-1, D-2, D-5 and D-6 in test solutions here were all adjusted at 0.05 mmol/l, and the concentrations of Mg^2+ were as indicated in Table 5.
Solution A1: MgCl2 4 mol/l, MOPS 50 mmol/l, NaOH 23.6 mmol/l, Solvent: Water
Solution A2: MgCl2 1 mol/l, MOPS 50 mmol/l, NaOH 23.6 mmol/l, Solvent: Water
Solution B: Compound 1 0.5 mmol/l, Solvent: DMSO
Solution C: NaCl 3 mol/l, MOPS 50 mmol/l, 23.6 mmol/l, Solvent: Water
For the purpose of indicating the change in the UV spectrum as a result of the increase in the metal ion concentration, one figure contained each UV spectrum curve at various metal ion concentrations.

HIV-1 integrase = HIV-1 integrase (Human immunodeficiency virus type 1 group M subtype B, UniProt P04585); test: HIV-1 integrase inhibition assay (microtiter plate, immobilised substrate DNA, Dig-labelled target DNA, OD 405 nm); assay type: biochemical
Method: Substrate DNA and target DNA, which sequences were indicated below, were synthesized by Amersham Pharmacia Biotech and dissolved in KTE buffer (composition: 100 mM KCl, 1 mM EDTA, 10 mM Tris-HCl (pH 7.6)) at concentration of 2 pmol/μl and 5 pmol/μl, respectively. The DNA solutions were annealed with each complement by slowly cooling after heating.
Streptavidin, obtained from Vector Laboratories, was dissolved in 0.1 M carbonate buffer (composition: 90 mM Na2CO3, 10 mM NaHCO3) at concentration of 40 μg/ml. After coating each well of microtiter plates (obtained from NUNC) with 50 μl of the above solution at 4° C. overnight, each well was washed twice with PBS (composition: 13.7 mM NaCl, 0.27 mM KCl, 0.43 mM Na2HPO4, 0.14 mM KH2PO4) and blocked with 300 μl of 1% skim milk in PBS for 30 min. Additionally, each well was washed twice with PBS and added 50 μl of substrate DNA solution (2 pmol/μl). The microtiter plates were kept at room temperature for 30 min. Then, each well was washed twice with PBS and once with H2O.
Subsequently, in the each well prepared above were added 45 μl of the reaction buffer prepared from 12 μl of the buffer (composition: 150 mM MOPS (pH 7.2), 75 mM MnCl2, 50 mM 2-mercaptoethanol, 25% glycerol, 500 μg/ml bovine serum albumin-fraction V), 1 μl of target DNA (5 pmol/μl), and 32 μl of the distilled water. Additionally, 6 μl of either a test compound in DMSO or DMSO for positive control(PC) was mixed with the above reaction buffer, then 9 μl of an integrase solution (30 pmol) was added and mixed well. In the well of negative control (NC) was added 9 μl of the integrase dilution buffer (composition: 20 mM MOPS (pH7.2), 400 mM potassium glutamate, 1 mM EDTA, 0.1% NP-40, 20% glycerol, 1 mM DTT, 4M urea).
The microtiter plates were incubated at 30° C. for 1 hour. The reaction solution was removed and each well was washed twice with PBS. Subsequently, each well of the microtiter plates was filled with 100 μl of anti-digoxigenin antibody labeled with alkaline phosphatase (Sheep Fab fragment: obtained from Boehringer) and incubated at 30° C. for 1 hour. Then, each well was washed twice with 0.05% Tween20 in PBS and once with PBS. Next, 150 μl of the Alkaline phosphatase reaction buffer (composition: 10 mM p-Nitrophenylphosphate (obtained from Vector Laboratories), 5 mM MgCl2, 100 mM NaCl, 100 mM Tris-HCl (pH 9.5)) was added in each well. […] The optical density (OD) at 405 nm of each well was measured and the percent inhibition was determined by the following expression.
The percent inhibition (%)=100[1-{(C abs.−NC abs.)/(PC abs.−NC abs.)}]
When the percent inhibition (%) is X % at the concentration of x μg/ml and the percent inhibition (%) is Y % at the concentration of y μg/ml, one of which is more than 50% and the other is less than 50%, IC50 can be determined by the following expression.
IC50(μg/ml)=x-{(X-50)(x-y)/(X-Y)}
Compound No. in the Table 1 is the same as compound No. of the above example.

[2] = UV spectrum measurement with monovalent ions Na+ and K+; assay type: physicochemical

Compound | change in the UV spectrum curve as the metal ion concentration was increased [1] | IC50 (HIV-1 integrase) | change in the UV spectrum curve [2] | IC50 (HIV-1 integrase; concentration of the compound at percent inhibition 50%, MnCl2 buffer, 30° C., 1 hour)
OC(=Cc1cc(CCc2ccccc2)ncn1)c1ccccc1 [Compound D-6] | 1-step change | > 331 µM | – | –
O=C(O)/C(O)=C/c1cc(CCc2ccccc2)ncn1 [Compound C-1] | 2-step change | 5.55 µM | almost no change | –
O=C(O)/C=C/c1cc(CCc2ccccc2)ncn1 [Compound D-2] | no change | – | – | >100 µg/mL
